We go through 22 compounds from ChEMBL document CHEMBL3870317, “FtsZ inhibition and redox modulation with one chemical scaffold: Potential use of dihydroquinolines against mycobacteria” (Eur J Med Chem, 2016).

Values after ≈ are worked out from the molar mass of the structure shown. Active and inactive are the calls of the source. The calls are words filed in the database; no cut-off is given here.

A word on the IC50: it is the concentration that inhibits the measured activity by half. For orientation: MIC means the lowest concentration that inhibits growth of the organism. Higher therefore signals a less susceptible organism. In general, inhibition refers to the percentage by which the read-out fell short of the control. What is called Kd is a measure of binding affinity in units of concentration.

Assay [1] in a line: (§1) Inhibition of recombinant Mycobacterium tuberculosis FtsZ polymerization expressed in Escherichia coli assessed as inhibition of protofilament formation by measuring intensity of light scattering in presence of GTP by fluorescence spectrophotometry method.
Assay [2] in a line: (§2) Inhibition of recombinant Mycobacterium tuberculosis FtsZ GTPase activity expressed in Escherichia coli assessed as inorganic phosphate release measured after 15 mins in presence of GTP using malachite green dye by fluorescence spectrophotometry.
The subject of assay [3] is Mycolicibacterium smegmatis. Kind of assay: Antimycobacterial activity against Mycobacterium smegmatis MC2 155 measured after 48 hrs by resazurin dye-based MABA method. In kind it is functional. The following applies: str. MC2 155, 48 h. In general terms: Resazurin is reduced to fluorescent resorufin, in cell work by metabolically active cells.
Assay [4] deals with Mycobacterium tuberculosis. Kind of assay: Inhibition of recombinant Mycobacterium tuberculosis FtsZ GTPase activity expressed in Escherichia coli assessed as inorganic phosphate release at 50 uM measured after 15 mins in presence of GTP using malachite green dye by fluorescence spectrophotometry relative to control.
Assay [5] relates to Mycobacterium tuberculosis. Kind of assay: Inhibition of Mycobacterium tuberculosis FtsZ polymerization at 50 uM measured after 1 hr by sodium tungstate staining based transmission electron microscopic method.
In assay [6] the test system is Mycobacterium tuberculosis. Described as §1.
The subject of assay [7] is Mycobacterium tuberculosis. Described as §2.
Assay [8] deals with Mycolicibacterium smegmatis MC2 155. Kind of assay: Inhibition of recombinant Mycobacterium smegmatis MC2 155 FtsZ assessed as increase in cell length at 50 uM measured after 2 hrs by phase contrast microscopy relative to control.
Another assay has as its system Bacillus subtilis. Kind of assay: Induction of ROS generation in Bacillus subtillis 168 assessed as DCF release at 25 to 50 uM measured after 1 hr by DCFH-DA based fluorescence microscopy. The format is functional. The following applies: subsp. subtilis str. 168.
In assay [9] the test system is Mycolicibacterium smegmatis. Kind of assay: Induction of ROS generation in Mycobacterium smegmatis MC2 155 assessed as release of DCF at 25 to 50 uM measured after 1 hr by DCFH-DA based fluorescence spectrophotometry. The following applies: str. MC2 155. The format is functional.
The subject of assay [10] is Mycobacterium tuberculosis. As to the kind of experiment: Inhibition of recombinant Mycobacterium tuberculosis FtsZ expressed in Escherichia coli assessed as inhibition of protofilament formation by measuring intensity of light scattering at 400 nM up to 300 sec in presence of GTP by fluorescence spectrophotometry.
Assay [11] has as its target T1, Cell division protein FtsZ (Bacillus subtilis (strain 168)) (UniProt P17865).
T1 sequence (whole entry): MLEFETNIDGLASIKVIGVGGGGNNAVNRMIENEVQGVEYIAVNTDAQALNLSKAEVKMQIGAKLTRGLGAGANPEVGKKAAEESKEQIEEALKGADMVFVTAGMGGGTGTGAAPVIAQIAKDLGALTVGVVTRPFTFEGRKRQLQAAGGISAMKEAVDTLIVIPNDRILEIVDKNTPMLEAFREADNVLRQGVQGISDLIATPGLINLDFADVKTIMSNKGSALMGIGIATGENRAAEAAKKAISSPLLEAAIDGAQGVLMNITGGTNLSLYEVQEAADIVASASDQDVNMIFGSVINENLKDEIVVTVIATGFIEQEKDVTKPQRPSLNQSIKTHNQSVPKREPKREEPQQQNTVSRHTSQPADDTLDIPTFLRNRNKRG
Kind of assay: Binding affinity to Bacillus subtilis 168 FtsZ assessed as effect on Z-ring assembly at 100 uM by FITC-staining based immunofluorescence microscopic method. The following applies: Bacillus subtilis subsp. subtilis str. 168.

In assay [12] the target is T1, Cell division protein FtsZ (Bacillus subtilis (strain 168)). Kind of assay: Inhibition of recombinant Bacillus subtilis 168 FtsZ assessed as increase in cell length at 50 uM measured after 2 hrs by phase contrast microscopy relative to control. The following applies: Bacillus subtilis subsp. subtilis str. 168.
The test system of assay [13] is Mycobacterium tuberculosis. As to the kind of experiment: Inhibition of recombinant Mycobacterium tuberculosis FtsZ expressed in Escherichia coli assessed as inhibition of protofilament formation by measuring intensity of light scattering at 400 nM after 1000 sec in presence of GTP by fluorescence spectrophotometry.
Assay [14] deals with Mycobacterium tuberculosis. As to the kind of experiment: Displacement of ANS from recombinant Mycobacterium tuberculosis FtsZ expressed in Escherichia coli assessed as red shift at 20 to 140 uM after 30 mins by fluorescence analysis.
Assay [15] can be described thus: Displacement of ANS from recombinant Mycobacterium tuberculosis FtsZ expressed in Escherichia coli by double reciprocal plot analysis.

Consider `COC(=O)C1=Cc2cc3ccccc3nc2N([C@@H](CO)C(=O)OC)C1`, for which the IC50 in assay [1] (read-out: IC50) came to 61.5 µM; in [2] (read-out: IC50) it was 66 µM. The MIC in [3] came out at 15 µg/mL (≈ 43.8 µM).

In the case of `CC(C)c1c(O)ccc2c1CC[C@H]1C(C)(C)CCC[C@]21C`, in assay [4], the inhibition lay within 73 to 74%.

The compound `CO[C@H]1/C=C/O[C@@]2(C)Oc3c(C)c(O)c4c(O)c(c(/C=N/N5CCN(C)CC5)c(O)c4c3C2=O)NC(=O)/C(C)=C\C=C\[C@H](C)[C@H](O)[C@@H](C)[C@@H](O)[C@@H](C)[C@H](OC(C)=O)[C@@H]1C` [RIFAMPIN] gave an MIC in assay [3] of 1.75 µg/mL (≈ 2.13 µM).

Take `O=C(O)C1=Cc2cc([N+](=O)[O-])ccc2N(Cc2ccccc2)C1`: the IC50 in assay [1] (read-out: IC50) stood at 95 µM; in assay [2] (read-out: IC50), 86.6 µM. The compound also returned an MIC in [3] of 31.2 µg/mL (≈ 101 µM).

For `COc1ccc2cc3[n+](cc2c1OC)CCc1cc2c(cc1-3)OCO2`, in [4], the inhibition is 79 to 80%.

With `CCCCN1CC(C(=O)OC)=Cc2cc([N+](=O)[O-])ccc21`, the IC50 in assay [1] (read-out: IC50) and in assay [2] (read-out: IC50) was above 200 µM each time. Further, the MIC in assay [3] was 7.5 µg/mL (≈ 25.8 µM).

`COC(=O)C1=Cc2cc([N+](=O)[O-])c(Cl)cc2N([C@@H](C)c2ccccc2)C1`: the IC50 was 41.4 µM in assay [1] (read-out: IC50) and 40 µM in assay [2] (read-out: IC50). In [5], the inhibition entry is “Active”. Besides, in assay [3], the lowest concentration to inhibit growth (MIC) was 15 µg/mL (≈ 40.2 µM).

`CCN1CC(C(=O)OC)=Cc2cc(F)c(F)cc21`: the inhibition entry in [6] and in assay [7] was “Dose-dependent effect” in each case. Further, the IC50 in assay [1] (read-out: IC50) stood at 210 µM; in [2] (read-out: IC50), 196 µM. The MIC in assay [3] came out at 0.9 µg/mL (≈ 3.55 µM).

Regarding `CC(C)(C)OC(=O)C1=Cc2cc([N+](=O)[O-])ccc2N(Cc2ccccc2)C1`, the IC50 in [1] (read-out: IC50) and in [2] (read-out: IC50) was above 200 µM throughout. For the same compound, it took 7.5 µg/mL (≈ 20.5 µM) to inhibit growth in [3] (MIC).

On to `CN[C@@H]1[C@H](O[C@H]2[C@H](O[C@H]3[C@H](O)[C@@H](O)[C@H](N=C(N)N)[C@@H](O)[C@@H]3N=C(N)N)O[C@@H](C)[C@]2(O)C=O)O[C@@H](CO)[C@H](O)[C@H]1O` [STREPTOMYCIN], for which it took 3 µg/mL (≈ 5.16 µM) to inhibit growth in assay [3] (MIC).

For `COC(=O)C1=Cc2cc([N+](=O)[O-])ccc2N([C@@H](CO)C(=O)OC)C1`, the values for the fold change (FC) in assay [8] and in assay [12] were 4 and 6, respectively. Besides, the result (with Bacillus subtilis; in assay [9]; in assay [11]) was Active. Besides, the inhibition result in assay [6], in assay [13] and in assay [7] was “Dose-dependent effect” each time. Moreover, the IC50 in assay [1] (read-out: IC50) was found to be 33.4 µM; in [2] (read-out: IC50), 39 µM. The inhibition result in [10], in assay [5] and in [14] was “Active” in each case. In [3], this compound gave an MIC of 7.5 µg/mL (≈ 22.3 µM). In addition, in assay [15], the Kd worked out at 8.6 µM.

Regarding `COC(=O)C1=Cc2cc([N+](=O)[O-])ccc2N(CCO)C1`, the results for the IC50 in assay [1] (read-out: IC50) and in assay [2] (read-out: IC50) were 40.1 µM and 41.5 µM, respectively. Moreover, the MIC in [3] turned out to be 3.9 µg/mL (≈ 14 µM).

Turning to `C[C@H](c1ccccc1)N1CC(C(=O)O)=Cc2cc([N+](=O)[O-])ccc21`, the inhibition result in assay [6] and in [7] was “Dose-dependent effect” in each case. Besides, the figures for the IC50 in [1] (read-out: IC50) and in assay [2] (read-out: IC50) were 40.9 µM and 25.3 µM, respectively. Further, it took 7.5 µg/mL (≈ 23.1 µM) to inhibit growth in assay [3] (MIC).

On to `COC(=O)C1=Cc2ccccc2N(S(=O)(=O)c2ccc(C)cc2)C1`, for which the IC50 entry in [1] and in assay [2] was “Nd(Insoluble)” each time.

`COC(=O)C1=Cc2cc([N+](=O)[O-])ccc2N([C@@H](C)C(=O)OC)C1`: the IC50 entry in assay [1] and in [2] was “Nd(Insoluble)” throughout.

As to `CCN1CC(C(=O)OC)=Cc2cc([N+](=O)[O-])ccc21`, the IC50 result in assay [1] and in assay [2] was “Nd(Insoluble)” throughout.

Take `COCCCN1CC(C(=O)OC)=Cc2cc([N+](=O)[O-])ccc21`: the inhibition result in [6] and in assay [7] was “Dose-dependent effect” each time. The IC50 was 88.6 µM in assay [1] (read-out: IC50) and 89.3 µM in [2] (read-out: IC50). In addition, the MIC in assay [3] was determined as 1.95 µg/mL (≈ 6.37 µM).

On to `COC(=O)C1=Cc2cc([N+](=O)[O-])ccc2N(Cc2ccccn2)C1`, for which the IC50 amounted to 194 µM in [1] (read-out: IC50) and 186 µM in assay [2] (read-out: IC50). The compound further registered an MIC in assay [3] of 62.5 µg/mL (≈ 192 µM).

`COC(=O)C1=Cc2cc([N+](=O)[O-])ccc2N(Cc2ccc3c(c2)OCO3)C1`: the inhibition result in assay [6] and in assay [7] was “Dose-dependent effect” throughout. Besides, the IC50 amounted to 77.3 µM in [1] (read-out: IC50) and 78.5 µM in [2] (read-out: IC50). In assay [3], this compound displayed an MIC of 0.95 µg/mL (≈ 2.58 µM).

Turning to `COC(=O)C1=Cc2cc([N+](=O)[O-])ccc2N(Cc2ccccc2)C1`, the IC50 in [1] (read-out: IC50) amounted to 184 µM; in assay [2] (read-out: IC50), 197 µM. Moreover, 31.5 µg/mL (≈ 97.1 µM) was the least that counted as inhibitory in assay [3] (MIC).

For the compound `CC(=O)C1=Cc2cc([N+](=O)[O-])ccc2N(Cc2ccccc2)C1`, the IC50 in assay [1] (read-out: IC50) and in [2] (read-out: IC50) was above 200 µM each time. In assay [3], this compound returned an MIC of 7.5 µg/mL (≈ 24.3 µM).

For `CCN(CC)CCN1CC(C(=O)OC)=Cc2cc([N+](=O)[O-])ccc21`, the inhibition entry in assay [6] and in [7] was “Dose-dependent effect” in each case. Also, the IC50 in assay [1] (read-out: IC50) worked out at 34 µM; in [2] (read-out: IC50), 38.3 µM. The same compound showed an MIC in assay [3] of 7.5 µg/mL (≈ 22.5 µM).
